{"source": "patent US20200148682A1", "about": "“AKT ISOZYME-SPECIFIC COVALENT INHIBITORS DERIVED FROM REDOX-SIGNALING LIPIDS” (Cornell University, priority 2017, published 2020)", "type_in_all_cases": "cell-based", "key": {"[1]": {"tested_on": "MDA-MB-468 cells", "test": "Assay for drug synergism with Akt isoform-specific knockdown", "settings": "for Fold Selectivity (MK-FNE vs MK-2206 sensitization by knockdown): 72 hours", "experimental": "MDA-MB-468 cells were plated in a 6-well plate to reach 80% confluence 10 hours post seeding. […] The cells were allowed to grow for 12 hours before addition of an equivalent volume of rinse medium containing varying concentrations of MK-2206, MK-FNE, or DMSO. The cells continued to grow for 72 hours before adding 1/10th volume of AlamarBlue® reagent to culture medium. The fluorescence emission signals at 590 nm were read by Cytation 3 cell imaging multi-mode reader (BioTeK) using an excitation wavelength of 560 nm. Curve fitting and data analysis were performed using Prism software. The effect of the different knockdowns on the drug action was expressed by calculating the fold selectivity (S): […]"}, "[2]": {"tested_on": "six other cultured cell lines (breast cancer lines not PTEN-null TNBC, fibroblast lines)", "test": "Cell viability assay (AlamarBlue), six other cultured cell lines", "settings": "for toxicity and selectivity across cell lines: 3 days", "experimental": "After this time, cells were lysed and analyzed by antibodies for phosphorylated T305 (pT305) of Akt3, Halo (Akt), and Actin (loading control). […] FIG. 23F is a graph showing proliferation curves. […] After this time, the number of viable cells was calculated using AlamarBlue®. Proliferation curves were fitted to the PI50 equation (EQN. 4). […] FIG. 23H is a graph showing the percentage of viable cells. […] The percentage of growth relative to DMSO-treated cells is shown for the 48 hour point and the 72 hour point. FIG. 23I is a schematic showing the different methods used to derive the data in 23H.\nIndicated cells were plated in a 96-well plate containing the DMEM complete medium (see Example 11 for complete medium formulation, 100 μL per well) with a density of 3,000-5,000 cells per well for 12 hours followed by the addition of varying concentrations of inhibitors in rinse medium (100 μL). The cells were allowed to grow for 72 hours and 100 μL of the culture medium was removed from each well. This was followed by the addition of 10 μL AlamarBlue® reagent to each well. The fluorescence emission signals at 590 nm were read by Cytation 3 cell imaging multi-mode reader (BioTeK) using an excitation wavelength of 560 nm. Curve fitting and data analysis were performed using Prism software."}, "[3]": {"biological_target": "T1, Halo-Akt3 (Homo sapiens, UniProt Q9Y243)", "T1 construct": "expressed in transfected cells; host or cells: HEK293T", "T1 sequence (Q9Y243 whole entry)": "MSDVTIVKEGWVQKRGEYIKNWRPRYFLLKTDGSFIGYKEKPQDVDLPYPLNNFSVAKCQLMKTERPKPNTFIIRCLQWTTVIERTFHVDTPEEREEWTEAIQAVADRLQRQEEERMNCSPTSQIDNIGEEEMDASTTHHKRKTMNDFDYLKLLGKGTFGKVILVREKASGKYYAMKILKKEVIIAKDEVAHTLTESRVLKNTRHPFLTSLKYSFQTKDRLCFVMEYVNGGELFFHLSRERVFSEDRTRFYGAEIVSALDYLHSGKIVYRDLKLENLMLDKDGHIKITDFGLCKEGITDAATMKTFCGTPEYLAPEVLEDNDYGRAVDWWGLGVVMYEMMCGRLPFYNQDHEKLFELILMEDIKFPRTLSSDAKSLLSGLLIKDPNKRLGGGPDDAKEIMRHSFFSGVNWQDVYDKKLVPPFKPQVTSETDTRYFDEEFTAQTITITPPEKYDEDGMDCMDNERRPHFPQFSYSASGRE", "test": "In-gel fluorescence assay (Cy5-azide click) of covalent labeling in transfected HEK293T cells", "settings": "5 μM, 48 hours", "experimental": "HEK293T cells were transfected with Halo-Akt3 for 20 hours, then treated with the stated compound (5 μM, 48 hours). After this time, cells were lysed and the labeling was assayed by click chemistry. […] FIGS. 19A, 19C top gels are images showing in gel fluorescence, Cy5 channel. M is a molecular weight ladder. FIG. 19A, 19C lower panels are images of western blots (probing for Halo and actin, respectively) transferred from the same gel as the top image. […] FIGS. 19E-19F are graphs showing quantitation of in-gel Cy5 signal intensity, divided by the western blot signal for Halo.\nCell transfection with the designated plasmid encoding a given HaloTag-Akt fusion gene was carried out following the general procedure described in Example 12. After 20-24 hours, the transfection media were aspirated and replaced with fresh 2 mL rinse MEM medium supplemented with 3% FBS containing the indicated concentration of inhibitor or the equivalent final volume of DMSO and the plates were incubated for the indicated period of time. Cells were then harvested and lysed following the general procedure described in Examples 11 and 13. A portion of the lysate was made up to 25 μL final volume containing, in final concentrations, 5% t-BuOH, [2 mM TCEP, 1% SDS, 1 mM CuSO4, 0.1 mM Cu(TBTA), 10 μM Cy5 azide made up as a 10× stock in water] and 1.0 mg/mL lysate protein. The samples were incubated at 37° C. for 30 min and subsequently quenched with 8 μL of 4×Laemmeli dye containing 6% f ME. After an additional 5-min incubation at 37° C., samples were resolved on a 10% SDS-PAGE gel following the general procedure described in Example 14. After electrophoresis, the gel was rinsed three times with ddH2O and imaged on a Bio-Rad Chemi-doc-MP Imager. Where applicable, the gel was transferred to a PVDF membrane for western blot analysis following the general procedure described in Example 15."}, "[4]": {"settings": "knockdown of Akt3 (approximately 40-60%)"}}, "note": "Where “and” joins values, the source holds several entries; their conditions need not be identical. Equal values may be shown once. Entries after “also recorded” stand apart in the source; their conditions may differ."}
{"smiles": "NC1(c2ccc(-c3nc4ccn5c(=O)[nH]nc5c4cc3-c3ccccc3)cc2)CCC1", "note": "[MK-2206]", "values": [{"measurement": "sensitization to toxicity relative to control knockdown cells", "setting": "[1]; [4]", "value": "2-3 fold"}, {"measurement": "toxicity and selectivity across cell lines", "setting": "[2]", "value": "generally toxic to most lines"}]}
{"smiles": "C#CCCCC(F)/C=C/C(=O)NC1(c2ccc(-c3nc4ccn5c(=O)[nH]nc5c4cc3-c3ccccc3)cc2)CCC1.Cl", "note": "(centres unmarked) [MK-FNE, (E)-8-(4-(1-(4-Fluoronon-2-en-8-ynamido)cyclobutyl)phenyl)-3-oxo-9-phenyl-2,3-dihydro-[1,2,4]triazolo[3,4-f][1,6]naphthyridin-7-ium Chloride]", "values": [{"measurement": "covalent labeling of Halo-Akt3", "setting": "[3]", "value": "able to elicit covalent labeling"}, {"measurement": "sensitization to toxicity relative to control knockdown cells", "setting": "[1]; Akt1 or Akt2 knockdown (approximately 40-60%), on average", "value": "around 2 fold"}, {"measurement": "sensitization to toxicity relative to control knockdown cells", "setting": "[1]; [4]", "value": "around 8 fold"}, {"measurement": "Fold Selectivity (MK-FNE vs MK-2206 sensitization by knockdown)", "setting": "[1]; siAKT1, two siRNAs", "value": "0.5 and 0.4"}, {"measurement": "Fold Selectivity (MK-FNE vs MK-2206 sensitization by knockdown)", "setting": "[1]; siAKT3, two siRNAs", "value": "3.9 and 3.7"}, {"measurement": "toxicity and selectivity across cell lines", "setting": "[2]", "value": "significantly selective against PTEN-null TNBC lines"}, {"measurement": "PI50(MK-FNE)/PI50(MK-2206)", "setting": "[2]; all but PTEN-null TNBC lines, except TSE", "value": "greater than 2"}, {"measurement": "PI50(MK-FNE)/PI50(MK-2206)", "setting": "[2]; some lines", "value": "above 8"}]}
{"smiles": "C#CCCCC(O)/C=C/C(=O)NC1(c2ccc(-c3nc4ccn5c(=O)[nH]nc5c4cc3-c3ccccc3)cc2)CCC1.Cl", "note": "(centres unmarked) [MK-HNE, (E)-8-(4-(1-(4-Hydroxynon-2-en-8-ynamido)cyclobutyl)phenyl)-3-oxo-9-phenyl-2,3-dihydro-[1,2,4]triazolo[3,4-f][1,6]naphthyridin-7-ium Chloride]", "values": [{"measurement": "covalent labeling of Halo-Akt3", "setting": "[3]", "value": "labeling was observed; also recorded: able to elicit covalent labeling"}]}
